From paper PMC12794336, “Unconventional chalcogen-containing azolylidene metal complexes as potential anticancer therapeutics” (Chemical Science, 2025)
Read-outs that look alike come from different tables or passages of the source.

Key:
[1] = system: A2780 ovarian cancer cell line; assay: Cytotoxicity, PrestoBlue assay, A2780; assay type: cell-based, human; settings: read-out: IC50 (µM) after 72 h, A2780
Description: (§1) counterpart, A2780cis, were procured from the European Collection of Cell
(§2) (ThermoFisher, USA) base medium supplemented with 10% Foetal Bovine
(§3) Serum (FBS; Sigma, Germany) and 1% of Penicillin-Streptomycin
(§4) (ThermoFisher, USA). Additionally, A2780cis cell line was cultured in the
(§5) drug. The human embryonic kidney cell line, HEK293T, and HeLa cell line were
(§6) obtained from American Type Culture Collection (ATCC, USA) and were cultured
(§7) in DMEM GlutaMAX (ThermoFisher, USA) base medium, supplemented with
(§8) 10% FBS and 1% of Penicillin-Streptomycin. All cell lines were maintained in a
(§9) humidified incubator at37 °C and 5% CO2.
(§10) 4.2. Cytotoxicity studies
(§11) cells/mL (A2780cis and HEK293T) was dispensed into flat bottom 96-well plates
(§12) and allowed to attach overnight. On the next day, 10 mM stock solutions of the
(§13) tested compounds were prepared in DMSO, then diluted with media to the final
(§14) concentration range of 0 - 100 µM and applied to the cells; 0.1% DMSO final
(§15) solution and 10 µM final concentration gambogic acid were used as negative and
(§16) positive controls, respectively. After 72 h incubation in a humidified incubator
(§17) under 5% CO2 at 37 °C, PrestoBlue™ cell viability reagent (Cat. No. A13262,
(§18) Invitrogen, USA) was added to cultures at a 1:10 ratio according to the
(§19) manufacturer instructions, and samples were incubated for 1.5 h. Fluorescence
(§20) at 560/590 nm was detected with Tecan Infinite 500 microplate reader (Tecan,
(§21) Switzerland). Three wells were assessed for each concentration of the tested
(§22) compounds and three independent experiments were performed. Non-linear
(§23) regression and IC50 value calculation were performed in GraphPad Prism 9 using
(§24) the build-in function “Dose response- Inhibition”.

[2] = system: non-cancerous human embryonic kidney HEK293T cells; assay: Cytotoxicity, PrestoBlue assay, HEK293T; assay type: cell-based; settings: 72 h, read-out: IC50 (µM) after 72 h, HEK293T
Description: as §1, §2, §3, §4, §5, §6, §7, §8, §9, §10, §11, §12, §13, §14, §15, §16, §17, §18, §19, §20, §21, §22, §23, §24

[3] = system: A2780cis cells with acquired resistance to cisplatin; assay: Cytotoxicity, PrestoBlue assay, A2780cis; assay type: cell-based, human; settings: for IC50: 72 h, read-out: IC50 (µM) after 72 h, A2780cis; for Resistance index (RI): RI = IC50 A2780cis/IC50 A2780
Description: as §1, §2, §3, §4, §5, §6, §7, §8, §9, §10, §11, §12, §13, §14, §15, §16, §17, §18, §19, §20, §21, §22, §23, §24

[4] = n-octanol/water partition coefficient; assay type: physicochemical
From the text: Resistance index (RI) ^a, and n-octanol/water partition coefficients (logPOW) | column: logPOW

[5] = system: DNA synthesis in HeLa cells; assay: EdU incorporation assay, fluorescence cell microscopy; assay type: cell-based; settings: for Degree of inhibition of DNA synthesis: 3 µM, 24 h, gemcitabine = 100%, DMSO = 0%
From the text: The inhibitory effect of Pt1^Y and Pt2^Y (Y = NR, O, S) on DNA synthesis during cell proliferation was quantified in cellulo using an EdU incorporation assay and fluorescence cell microscopy (Fig. 6 and SI Fig. 12).[70] Gemcitabine, a clinically-approved DNA synthesis inhibitor,[71] was used as a positive control (100% inhibition), and the cells treated with an equivalent amount of DMSO served as a negative control (“untreated”, 0% inhibition). Cisplatin and transplatin were included as references. DNA synthesis was blocked to various degrees in the cells treated with the different platinum complexes. […]
4.4. EdU incorporation assay
EdU incorporation assay was performed using a Click-iT EdU Imaging kit
(C10086, Thermo Fisher, Switzerland) according to the manufacturer’s protocol.
HeLa cells were seeded into a black 96-well PhenoPlate with optically clear flat-bottom (Revity 6055302) at a concentration of 4000 cells per well. After 24 h, the cells were treated with the tested compounds Pt1Y and Pt2Y (Y = NR, O, S), […]
of the compounds in HeLA cells). Gemcitabine (1 and 3 µM) and an equal volume of DMSO were used as positive and negative control, respectively. Each condition was tested in triplicate. The assay was performed after an incubation of 24 h. The cells were additionally stained by Hoechst 33342 diluted in PBS with 3% BSA. The fluorescent signal was detected with the widefield INCell 2200 microscope (GE health care, USA) using a 10X/0.45 objective. The DAPI channel was used for Hoechst 33342 emitting blue (λex = 390/ 18 nm, λem = 432.5/ 48 nm), and the FITC channel for Edu-AlexaFluor-488 (λex = 475/ 28 nm, λem = 511.5/23 nm) emitting in green. For each well, 9 fields of view were captured. Image analysis was performed using CellProfiler (v4.2.5), CellProfiler Analyst (v3.0.4) and FIJI (v1.54k) software. Images were first pre -processed (correction for flat - field illumination using a Gaussian-based smoothing filter and rescaled for segmentation). All cells were segmented using the minimum cross -entropy thresholding method on an intermediate image composed of the addition of 2 channels imaged. For all cells, featur es of size, shape, and fluorescence intensities were extracted. Cells were then either classified directly as live or dead based on a combination of their size and EdU staining intensity or classified automatically as live or dead using a machine learning -based random forest classifier model in a multiparametric approach. The readout used is the average percentage of live or dead cells in each condition and the values are normalised to gemcitabine at 3 μM and DMSO (untreated) with the corresponding volume at […]

[6] = system: ovarian cancer cell lines (A2780 and A2780cis); assay: Cytotoxicity stated jointly for both ovarian cancer cell lines
Description: as §1, §2, §3, §4, §5, §6, §7, §8, §9, §10, §11, §12, §13, §14, §15, §16, §17, §18, §19, §20, §21, §22, §23, §24

[7] = Homo sapiens, A2780, 72 h, PrestoBlue
[8] = Homo sapiens, HEK-293T, PrestoBlue
[9] = Homo sapiens, A2780cis, PrestoBlue

| Compound | IC50 [1, 7] | IC50 [2, 8] | IC50 [3, 9] | IC50 ([1]; 72 h, PrestoBlue) | IC50 ([2]; PrestoBlue) | IC50 ([3]; PrestoBlue) | Resistance index (RI) [3] | further results |
| --- | --- | --- | --- | --- | --- | --- | --- | --- |
| c1ccc(Cn2c[n+](Cc3ccccc3)c3ccccc32)cc1 [4NBn·HBr] | 15.2 ± 12.1 µM | 35.2 ± 26.3 µM | 24.4 ± 11.7 µM | – | – | – | – | – |
| c1ccc(C[n+]2c[se]c3ccccc32)cc1 [4Se·HBr] | – | – | – | – | – | – | – | IC50 ([1]; Homo sapiens, A2780, 72 h): 13.5 ± 5.9 µM; IC50 ([2]; Homo sapiens, HEK-293T): 20.5 ± 14.2 µM; IC50 ([3]; Homo sapiens, A2780cis): 28.4 ± 8 µM |
| Cn1cc[n+](C)c1 [1NMe·HI] | > 100 µM | > 100 µM | > 100 µM | – | – | – | – | – |
| CCn1[c]([Au-][I])[n+](CC)c2ccccc21 [Au3^NEt] | – | – | – | 0.6 ± 0.2 µM | 2.1 ± 0.6 µM | 2.7 ± 0.1 µM | 4.9 | logPOW ([4]; n-octanol/water): 1.6 ± 1.1 |
| CC[n+]1[c]([Au-][I])oc2ccccc21 [Au3^O] | – | – | – | 0.2 ± 0.2 µM | 1 ± 0.1 µM | 5 ± 2 µM | 31.5 | IC50 ([1]; 72 h, PrestoBlue, listed as Au3^S): 0.2 ± 0.1 µM; IC50 ([1]; 72 h, PrestoBlue, listed as Au3^Se): 0.1 ± 0.1 µM; IC50 ([2]; PrestoBlue, listed as Au3^S): 1.9 ± 0.3 µM; IC50 ([2]; PrestoBlue, listed as Au3^Se): 0.1 ± 0.1 µM; logPOW ([4]; n-octanol/water): 1.2 ± 0.4; logPOW ([4]; n-octanol/water, listed as Au3^S): 1.5 ± 0.1; logPOW ([4]; n-octanol/water, listed as Au3^Se): 1.4 ± 0.3; IC50 ([3]; PrestoBlue, listed as Au3^S): 6.4 ± 0.4 µM; IC50 ([3]; PrestoBlue, listed as Au3^Se): 0.2 ± 0.1 µM; Resistance index (RI) ([3]; listed as Au3^S): 29.2; Resistance index (RI) ([3]; listed as Au3^Se): 3.4 |
| CC[n+]1csc2ccccc21 [3S·HI] | > 100 µM | > 100 µM | > 100 µM | – | – | – | – | – |
| CCn1c[n+](CC)c2ccccc21 [3NEt·HI] | > 100 µM | > 100 µM | > 100 µM | – | – | – | – | – |
| C[n+]1cco[c]1[Pt-2]([I])([I])[n+]1ccccc1 [Pt1^O] | – | – | – | 8 ± 2 µM | 18 ± 6 µM | 16 ± 4 µM | 2.0 | IC50 ([1]; 72 h, PrestoBlue, listed as Pt1^S): 13 ± 8 µM; IC50 ([2]; PrestoBlue, listed as Pt1^S): 47 ± 23 µM; IC50 ([3]; PrestoBlue, listed as Pt1^S): 30 ± 29 µM; Resistance index (RI) ([3]; listed as Pt1^S): 2.4; Degree of inhibition of DNA synthesis [5]: 38%; Degree of inhibition of DNA synthesis ([5]; listed as Pt1^S): 6% |
| N.N.[Cl][Pt][Cl] [Cisplatin, cisplatin, reference compound] | – | – | – | 0.4 ± 0.1 µM | 1.5 ± 0.2 µM | 8 ± 5 µM | – | IC50 ([3]; PrestoBlue, listed as cisplatin): 8.4 ± 4.6 µM; Degree of inhibition of DNA synthesis [5]: 62% |
| Cn1cc[n+](C)[c]1[Pt-2]([I])([I])[n+]1ccccc1 [Pt1^NMe] | – | – | – | 2.9 ± 0.2 µM | 4 ± 1 µM | 2.8 ± 0.7 µM | 1.0 | IC50 [6]: ~3 µM; logPOW [4]: 1.3 ± 0.6; Degree of inhibition of DNA synthesis [5]: 29% |
| [I][Pt-2]([I])([c]1occ[n+]1Cc1ccccc1)[n+]1ccccc1 [Pt2^O] | – | – | – | 4 ± 1 µM | 6 ± 2 µM | 5 ± 2 µM | 1.5 | IC50 ([1]; 72 h, PrestoBlue, listed as Pt2^S): 6 ± 1 µM; IC50 ([2]; PrestoBlue, listed as Pt2^S): 9 ± 2 µM; IC50 ([6]; read-out: Cytotoxicity (IC50) in the ovarian cancer cell lines, A2780 and A2780cis together, approximate text values, 72 h): ~5 µM; IC50 ([6]; read-out: Cytotoxicity (IC50) in the ovarian cancer cell lines, A2780 and A2780cis together, approximate text values, 72 h, listed as Pt2^S): ~8 µM; logPOW ([4]; n-octanol/water): 1.6 ± 0.2; logPOW ([4]; n-octanol/water, listed as Pt2^S): 1.8 ± 1.0; IC50 ([3]; PrestoBlue, listed as Pt2^S): 12 ± 3 µM; Resistance index (RI) ([3]; listed as Pt2^S): 2.2; Degree of inhibition of DNA synthesis [5]: 37%; Degree of inhibition of DNA synthesis ([5]; listed as Pt2^S): 24% |
| [I][Pt-2]([I])([c]1n(Cc2ccccc2)cc[n+]1Cc1ccccc1)[n+]1ccccc1 [Pt2^NBn] | – | – | – | 0.6 ± 0.2 µM | 1.4 ± 0.1 µM | 1.2 ± 0.1 µM | 1.9 | IC50 [6]: ~1 µM; logPOW [4]: 2.1 ± 0.8; Degree of inhibition of DNA synthesis [5]: 100% |
| c1ccc(C[n+]2ccoc2)cc1 [2O·HBr] | > 100 µM | > 100 µM | > 100 µM | – | – | – | – | – |
| CC(=O)OC[C@H]1O[C@@H]([S-])[C@H](OC(C)=O)[C@@H](OC(C)=O)[C@@H]1OC(C)=O.CCP(CC)CC.[Au+] [Auranofin, auranofin, reference compound] | – | – | – | 0.1 ± 0.1 µM | 0.4 ± 0.1 µM | 1.9 ± 0.4 µM | 20.6 | – |
| N.N.[Cl][Pt+2][Cl] [transplatin, reference compound] | – | – | – | – | – | – | – | Degree of inhibition of DNA synthesis [5]: 23% |
| C[n+]1ccsc1 [1S·HI] | > 100 µM | > 100 µM | > 100 µM | – | – | – | – | – |
| CC[n+]1coc2ccccc21 [3O·HI] | > 100 µM | > 100 µM | > 100 µM | – | – | – | – | – |
| c1ccc(C[n+]2csc3ccccc32)cc1 [4S·HBr] | 34.7 µM | 36.8 ± 19.3 µM | 37.9 ± 1.7 µM | – | – | – | – | – |
| C[n+]1ccoc1 [1O·HI] | 11.8 µM | 59.1 ± 16.6 µM | 39.8 ± 2.6 µM | – | – | – | – | – |
| c1ccc(C[n+]2ccsc2)cc1 [2S·HBr] | 58.6 µM | > 100 µM | 73.5 µM | – | – | – | – | – |
| c1ccc(Cn2cc[n+](Cc3ccccc3)c2)cc1 [2NBn·HBr] | 37.4 µM | 51.1 ± 12.4 µM | 44.1 µM | – | – | – | – | – |
| Nc1ccn([C@@H]2O[C@H](CO)[C@@H](O)C2(F)F)c(=O)n1 [gemcitabine, reference compound] | – | – | – | – | – | – | – | inhibition at 1 µM ([5]; Homo sapiens, gemcitabine 1 µM, set as 100%, read-out: Degree of inhibition of DNA synthesis (positive control)): 100% |
